Measured values from PubChem BioAssay (NCI).
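Interpolation was linear, between the two tested concentrations surrounding the appropriate level; five concentrations were tested over 48 hours in 96-well plates. TGI is the concentration that stops growth completely.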

Columns and labels:
Experiment in all cases: DTP human tumour cell line panel, 48 h
HL-60(TB) leukemia = test system: HL-60(TB) leukemia
HOP-62 NSCLC = test system: HOP-62 NSCLC
RXF 393 renal = test system: RXF 393 renal
SF-295 CNS = test system: SF-295 CNS
U251 CNS = test system: U251 CNS
MCF7 breast = test system: MCF7 breast
A549 NSCLC = test system: A549 NSCLC
SNB-19 CNS = test system: SNB-19 CNS
SF-539 CNS = test system: SF-539 CNS
SK-MEL-5 melanoma = test system: SK-MEL-5 melanoma
HS 578T breast = test system: HS 578T breast
SNB-75 CNS = test system: SNB-75 CNS
HOP-92 NSCLC = test system: HOP-92 NSCLC
HT29 colon = test system: HT29 colon
OVCAR-8 ovarian = test system: OVCAR-8 ovarian
CCRF-CEM leukemia = test system: CCRF-CEM leukemia
DU-145 prostate = test system: DU-145 prostate
ACHN renal = test system: ACHN renal
CAKI-1 renal = test system: CAKI-1 renal
OVCAR-4 ovarian = test system: OVCAR-4 ovarian
TK-10 renal = test system: TK-10 renal
UACC-257 melanoma = test system: UACC-257 melanoma
COLO 205 colon = test system: COLO 205 colon
MDA-MB-435 = test system: MDA-MB-435
MDA-N = test system: MDA-N
MOLT-4 leukemia = test system: MOLT-4 leukemia
LOX IMVI melanoma = test system: LOX IMVI melanoma
NCI-H522 lung = test system: NCI-H522 lung
MDA-MB-231 breast = test system: MDA-MB-231 breast
NCI-H226 lung = test system: NCI-H226 lung
K-562 leukemia = test system: K-562 leukemia
SF-268 CNS = test system: SF-268 CNS
EKVX NSCLC = test system: EKVX NSCLC
BT-549 breast = test system: BT-549 breast
SR leukemia = test system: SR leukemia
786-0 renal = test system: 786-0 renal
RPMI-8226 leukemia = test system: RPMI-8226 leukemia
SK-MEL-28 melanoma = test system: SK-MEL-28 melanoma
HCT-15 colon = test system: HCT-15 colon
HCC-2998 colon = test system: HCC-2998 colon
HCT-116 colon = test system: HCT-116 colon
NCI/ADR-RES ovarian = test system: NCI/ADR-RES ovarian
PC-3 prostate = test system: PC-3 prostate
IGROV1 ovarian = test system: IGROV1 ovarian
UO-31 renal = test system: UO-31 renal
NCI-H460 lung = test system: NCI-H460 lung
KM12 colon = test system: KM12 colon
A498 renal = test system: A498 renal
SW-620 colon = test system: SW-620 colon
SN12C renal = test system: SN12C renal
NCI-H23 lung = test system: NCI-H23 lung
OVCAR-3 ovarian = test system: OVCAR-3 ovarian
OVCAR-5 ovarian = test system: OVCAR-5 ovarian

Measured: TGI

O=[N+]([O-])c1ccc2c(c1)Sc1ccccc1N2CCCCCl
> 100 µM: all assays above
